One assay has as its target T1, integrin αvβ5 (Homo sapiens, UniProt P06756+P18084).
T1 construct: purchased Chemicon CC1022
The assay can be described thus: Binding to integrin αvβ5 receptors ((125I) Echistatin displacement). As to conditions: for IC50: 0.05 nM (125I) Echistatin, plate coated with 1 μg/ml integrin, read-out: αvβ5 IC50 ± SD. How it is done:
On the next day, the wells were washed and incubation was performed with 0.05 nM of(^125I) Echistatin (Amersham, cat. IM304) in the absence or presence of compounds according to the invention. The process then proceeded as described in the previous case.
(§1) The affinity of the compounds according to the present invention for vitronectin receptors was expressed as the IC50±SD value (nM) which is a parameter elaborated using “ALLFIT” software.

The target in another assay is T2, integrin αvβ3 (Homo sapiens, UniProt P05106+P06756).
T2 construct: purchased Chemicon CC1020
The experiment in a line: Binding to integrin αvβ3 receptors ((125I) Echistatin displacement). As to conditions: for IC50: 0.05 nM (125I) Echistatin, 3-hour incubation, plate coated with 0.5 μg/ml integrin, read-out: αvβ3 IC50 ± SD. How it is done:
96-well plates were subjected overnight to coating with 0.5 μg/ml of integrin αvβ3 (Chemicon, cat. CC1020). On the next day, the wells were washed and incubation was performed with 0.05 nM of (^125I) Echistatin (Amersham, cat. IM304) in the absence or presence of compounds according to the invention. After a 3-hour incubation and a series of washings, the integrin from each well bound to the radioactive substance was solubilised with NaOH 2N, and the radioactivity was then measured using a gamma counter. Non-specific binding, to be subtracted from all samples, was determined in the presence of Echistatin 1 μM.
as §1

Assay [1] relates to bovine microvascular endothelial cells (BMEC).
Description: Microvascular endothelial cells from bovine adrenal glands (bovine microvascular endothelial cells—BMEC) were isolated from animals that had just been sacrificed and were stored in ice up to their arrival in the laboratory. In sterile conditions, the glands were washed in a solution of betadine for 5 minutes and then in 2 liters of sterile PBS. The glands were then cut with a disposable sterile lancet into fragments of approximately 2 mm and transferred to polystyrene Falcon tubes containing PBS (30 ml per gland). After centrifuging at 600 rpm in a centrifuge cooled to +4° C., the supernatant was decanted. The pellet was resuspended 1:2 with a 0.12% solution of collagenase A (Boehringer Mannheim) and incubated at 37° C. for 2 hours under stirring. After subsequent filtration on filters (Sigma), first of 200, and then 100 mesh, the supernatant was added to a solution of DMEM containing 15% FBS to inhibit the action of the collagenase A. The solution was centrifuged at 1000 rpm at room temperature and the precipitate resuspended in DMEM medium containing 20% FBS, 50 μg/ml of bovine brain extract (BBE), 50 μg/ml of heparin (Sigma), 0.5% v/v gentamicin (Sigma), and 1% v/v L-glutamine. The cells were seeded on Petri dishes gelatinised with 1% gelatin (Sigma porcine gelatin). At confluence, the cells were characterised with endothelial markers as Factor VIII.
Assay [2] deals with Human melanoma MeWo cells. The assay can be described thus: Cell adhesion assay on vitronectin, MeWo. The class given is cell-based. As to conditions: inhibition of cell adhesion to human vitronectin, 0.1 to 100 μM; read-out: MeWo IC50 ± SD. The method, then:
Human melanoma MeWo cells from the American Type Culture Collection (ATCC) were kept in culture in complete Eagle Minimal Essential Medium (EMEM) containing 10% FCS, 2 mM L-glutamine and 50 μg/ml gentamicin.
(§2) 96-well plates were pretreated with 5 μg/ml of human vitronectin (Cal-biochem) for 12 hours at +4° C. BMEC or MeWo cells were detached with trypsin-EDTA, counted and plated on vitronectin substrate. The molecules were assayed at scalar concentrations ranging from 0.1 to 100 μM and co-incubated with the cells left to adhere. […] The adhereing cells were fixed with a 4% paraformaldehyde solution for 10 minutes at room temperature. The cells were then stained with a 1% toluidine blue solution for 10 minutes at room temperature. After staining, the cells were washed in double-distilled water, dried and solubilised with a 1% SDS solution. The cells were then quantified by means of absorbance reading on a Victor multilabel plate counter (Wal-lac) at 600 nm.
(§3) The evaluation parameter for the activity of the molecules was the value IC50±SD (μM).

The test system of assay [3] is SK-LMS-1 human leiomyosarcoma cells. The assay can be described thus: Cell adhesion assay on vitronectin, SK-LMS-1. It is filed as cell-based. As to conditions: inhibition of cell adhesion to human vitronectin, 0.1 to 100 μM; read-out: SK-LMS1 IC50 ± SD. How it is done:
SK-LMS-1 human leiomyosarcoma cells (ATCC) were grown in EMEM supplemented with 10% FCS, 2 mM L-glutamine and 50 μg/ml gentamicin.
as §2, §3

Read-outs that look alike come from different tables or passages of the source.

T2 sequence (P06756 31-889 limits assumed): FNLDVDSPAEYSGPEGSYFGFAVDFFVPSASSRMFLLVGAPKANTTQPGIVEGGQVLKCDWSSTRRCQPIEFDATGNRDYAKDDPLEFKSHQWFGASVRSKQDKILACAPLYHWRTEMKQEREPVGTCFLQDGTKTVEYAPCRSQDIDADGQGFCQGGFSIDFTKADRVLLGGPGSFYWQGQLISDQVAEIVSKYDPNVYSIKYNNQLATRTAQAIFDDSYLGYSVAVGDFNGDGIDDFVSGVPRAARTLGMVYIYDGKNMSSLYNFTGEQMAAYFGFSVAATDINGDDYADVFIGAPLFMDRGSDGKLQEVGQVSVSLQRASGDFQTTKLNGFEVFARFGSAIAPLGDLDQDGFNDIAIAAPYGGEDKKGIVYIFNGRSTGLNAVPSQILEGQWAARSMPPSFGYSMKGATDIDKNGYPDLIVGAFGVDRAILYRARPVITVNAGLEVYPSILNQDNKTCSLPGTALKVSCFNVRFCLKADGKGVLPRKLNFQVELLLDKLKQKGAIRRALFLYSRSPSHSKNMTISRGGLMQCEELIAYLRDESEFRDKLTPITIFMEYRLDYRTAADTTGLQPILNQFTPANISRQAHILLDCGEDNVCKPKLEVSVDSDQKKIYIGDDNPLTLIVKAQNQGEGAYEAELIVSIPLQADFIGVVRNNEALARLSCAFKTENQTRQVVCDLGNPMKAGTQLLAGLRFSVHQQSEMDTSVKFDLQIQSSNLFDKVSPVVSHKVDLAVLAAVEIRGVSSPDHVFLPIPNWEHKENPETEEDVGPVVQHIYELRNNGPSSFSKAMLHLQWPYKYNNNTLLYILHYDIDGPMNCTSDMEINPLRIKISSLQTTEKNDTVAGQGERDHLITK
T2 sequence (P06756 891-1048 partner limits assumed): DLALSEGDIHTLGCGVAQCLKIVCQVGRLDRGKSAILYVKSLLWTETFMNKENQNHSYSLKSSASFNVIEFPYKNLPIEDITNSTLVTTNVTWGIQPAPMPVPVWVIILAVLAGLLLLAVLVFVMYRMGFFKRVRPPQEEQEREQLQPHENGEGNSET
T2 sequence (P05106 27-788): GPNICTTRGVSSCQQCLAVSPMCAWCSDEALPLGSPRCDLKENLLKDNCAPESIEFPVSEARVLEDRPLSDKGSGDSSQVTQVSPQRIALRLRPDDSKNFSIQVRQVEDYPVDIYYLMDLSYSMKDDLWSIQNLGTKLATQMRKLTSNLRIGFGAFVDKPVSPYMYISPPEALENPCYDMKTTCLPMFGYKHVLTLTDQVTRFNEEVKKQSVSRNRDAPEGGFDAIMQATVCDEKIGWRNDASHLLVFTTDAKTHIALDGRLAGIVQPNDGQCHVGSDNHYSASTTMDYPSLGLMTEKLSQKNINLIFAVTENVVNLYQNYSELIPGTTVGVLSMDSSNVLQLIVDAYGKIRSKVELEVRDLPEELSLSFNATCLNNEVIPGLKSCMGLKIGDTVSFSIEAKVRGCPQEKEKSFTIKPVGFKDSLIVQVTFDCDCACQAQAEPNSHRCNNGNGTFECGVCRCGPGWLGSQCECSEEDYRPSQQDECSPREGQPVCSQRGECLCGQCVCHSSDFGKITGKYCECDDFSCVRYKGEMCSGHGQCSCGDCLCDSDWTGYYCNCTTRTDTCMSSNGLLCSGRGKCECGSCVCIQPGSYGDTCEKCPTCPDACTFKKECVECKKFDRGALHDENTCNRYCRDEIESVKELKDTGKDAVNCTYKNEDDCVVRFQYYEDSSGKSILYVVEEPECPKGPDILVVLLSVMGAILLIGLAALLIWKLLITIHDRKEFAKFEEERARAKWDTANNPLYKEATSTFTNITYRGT
T1 sequence (P06756 31-889 limits assumed): as the sequence (P06756 31-889 limits assumed) above
T1 sequence (P06756 891-1048 partner limits assumed): as the sequence (P06756 891-1048 partner limits assumed) above
T1 sequence (P18084 24-799): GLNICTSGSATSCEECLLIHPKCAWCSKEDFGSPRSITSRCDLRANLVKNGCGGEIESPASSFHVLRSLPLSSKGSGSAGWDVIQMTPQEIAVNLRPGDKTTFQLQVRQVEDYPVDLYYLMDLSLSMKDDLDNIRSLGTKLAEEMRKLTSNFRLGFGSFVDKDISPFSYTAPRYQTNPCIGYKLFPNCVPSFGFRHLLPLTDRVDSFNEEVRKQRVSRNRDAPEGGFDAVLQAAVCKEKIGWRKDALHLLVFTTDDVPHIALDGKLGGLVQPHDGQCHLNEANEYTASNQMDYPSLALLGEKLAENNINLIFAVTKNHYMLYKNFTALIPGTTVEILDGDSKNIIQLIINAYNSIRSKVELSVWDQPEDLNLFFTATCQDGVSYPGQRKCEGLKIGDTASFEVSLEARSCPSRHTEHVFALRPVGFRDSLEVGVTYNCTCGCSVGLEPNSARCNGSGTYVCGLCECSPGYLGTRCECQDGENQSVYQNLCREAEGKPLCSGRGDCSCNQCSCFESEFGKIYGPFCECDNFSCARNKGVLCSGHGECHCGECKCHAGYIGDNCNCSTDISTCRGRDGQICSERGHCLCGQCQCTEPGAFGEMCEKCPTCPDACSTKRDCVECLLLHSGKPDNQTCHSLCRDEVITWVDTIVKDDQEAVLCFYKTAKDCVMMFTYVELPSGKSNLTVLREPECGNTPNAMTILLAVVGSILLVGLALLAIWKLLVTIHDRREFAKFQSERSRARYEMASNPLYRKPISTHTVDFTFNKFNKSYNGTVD

As a reminder, the IC50 is the concentration needed to halve the response being measured. Regarding `CC(C)[C@@H]1NC(=O)[C@@H](Cc2ccccc2)NC(=O)C(CC(=O)O)(C(F)(F)F)NC(=O)CNC(=O)[C@H](CCCNC(=N)N)NC1=O` (single isomer, unassigned) [ST2190, c(Arg-Gly-(R or S)-Tfm-Asp-D-Phe-Val)], the IC50 on integrin αvβ5 and at integrin αvβ3 was over 10 µM throughout.

`CC(C)[C@@H]1NC(=O)C(Cc2ccccc2)(C(F)(F)F)NC(=O)[C@H](CC(=O)O)NC(=O)CNC(=O)[C@H](CCCNC(=N)N)NC1=O` (single isomer, unassigned) [ST2192, c(Arg-Gly-Asp-(R o S)-Tfm-Phe-Val)]: the half-inhibitory concentration (IC50) in assay [1] is over 100 µM; at integrin αvβ5, 0.0727 ± 0.0038 µM; at integrin αvβ3, 1.02 ± 0.348 µM.

In the case of “c(Arg-Gly-Asp-D-Phe-(R,S)-Dfm-Phe) [ST1932]”, the IC50 worked out at 14.2 ± 1 µM in assay [1] (read-out: BMEC IC50 ± SD, inhibition of cell adhesion to human vitronectin, 0.1 to 100 μM); 0.0055 ± 0.0008 µM at integrin αvβ5; 13.9 ± 4.3 µM in assay [2]; 0.332 ± 0.101 µM at integrin αvβ3.

For `CN1C(=O)[C@@H](Cc2ccccc2)NC(=O)[C@H](CC(=O)O)NC(=O)CNC(=O)[C@H](CCCNC(=N)N)NC(=O)C1(Cc1ccccc1)C(F)(F)F` (single isomer, unassigned) [ST2552, c(Arg-Gly-Asp-D-Phe-(R or S)—N-Me-Tfm-Phe)], the IC50 in assay [1] is over 100 µM; in assay [2], 0.33 ± 0.05 µM. The “binding affinity for vitronectine receptor αvβ5 (in words)” value on integrin αvβ5 is on record as “high binding affinity”. The “binding affinity for vitronectine receptor αvβ3 (in words)” value at integrin αvβ3 is “high binding affinity”.

On to `CC(C)C1(C(F)(F)F)NC(=O)[C@@H](Cc2ccccc2)NC(=O)[C@H](CC(=O)O)NC(=O)CNC(=O)[C@H](CCCNC(=N)N)NC1=O` (single isomer, unassigned) [ST2409, c(Arg-Gly-Asp-D-Phe-(R or S)-Tfm-Val)], for which the IC50 came to 12.5 ± 1.5 µM in assay [1] and 15.9 ± 1.6 µM in assay [3].

On to `N=C(N)NCCC[C@@H]1NC(=O)C(Cc2ccccc2)(C(F)(F)F)NC(=O)[C@@H](Cc2ccccc2)NC(=O)[C@H](CC(=O)O)NC(=O)CNC1=O` (single isomer, unassigned) [ST1930, C(Arg-Gly-Asp-D-Phe-(R or S)-Tfm-Phe)], for which the IC50 in assay [1] was 8.9 ± 0.4 µM; in assay [2], 6.9 ± 1.3 µM.

Take `CC(C)C1(C(F)(F)F)NC(=O)[C@@H](Cc2ccccc2)NC(=O)[C@H](CC(=O)O)NC(=O)CNC(=O)[C@H](CCCNC(=N)N)NC1=O` (single isomer, unassigned) [ST2410, c(Arg-Gly-Asp-D-Phe-(R or S)-Tfm-Val)]: the IC50 in assay [1] was 77.6 ± 7.2 µM; in assay [3] it was over 100 µM.

As to `CC(C)[C@@H]1NC(=O)C(Cc2ccccc2)(C(F)(F)F)NC(=O)[C@H](CC(=O)O)NC(=O)CNC(=O)[C@H](CCCNC(=N)N)NC1=O` (single isomer, unassigned) [ST2191, c(Arg-Gly-Asp-(R o S)-Tfm-Phe-Val)], the IC50 in assay [1] is 18.8 ± 4.4 µM; on integrin αvβ5, 0.01 ± 0.0019 µM; in assay [2], 21.9 ± 2.5 µM; at integrin αvβ3, 0.237 ± 0.064 µM.

Turning to `CC(C)[C@@H]1NC(=O)[C@@H](Cc2ccccc2)NC(=O)C(CC(=O)O)(C(F)(F)F)NC(=O)CNC(=O)[C@H](CCCNC(=N)N)NC1=O` (single isomer, unassigned) [ST2189, c(Arg-Gly-(R or S)-Tfm-Asp-D-Phe-Val)], the IC50 at integrin αvβ5 and at integrin αvβ3 was over 10 µM throughout.

The values above are taken from patent US20060205637A1, “Fluoro-alkyl-cyclopeptide derivatives having anti-integrin activity” (Sigma-Tau Industrie Farmaceutiche Riunite S.p.A., priority 2002, published 2006).
